Article PMC4810224, “Validation of the Target Protein of Insecticidal Dihydroagarofuran Sesquiterpene Polyesters” (Toxins, 2016)

Molecular target: T1, subunit H of V-ATPase (recombinant subunit H) (Mythimna separata, UniProt A0A0D3L6K4)
T1 construct: full CDS in pET-15b, N-terminal His tag, E. coli BL21 (DE3), Ni-NTA twice, ~55 kDa, free subunit
T1 sequence (A0A0D3L6K4 1-474): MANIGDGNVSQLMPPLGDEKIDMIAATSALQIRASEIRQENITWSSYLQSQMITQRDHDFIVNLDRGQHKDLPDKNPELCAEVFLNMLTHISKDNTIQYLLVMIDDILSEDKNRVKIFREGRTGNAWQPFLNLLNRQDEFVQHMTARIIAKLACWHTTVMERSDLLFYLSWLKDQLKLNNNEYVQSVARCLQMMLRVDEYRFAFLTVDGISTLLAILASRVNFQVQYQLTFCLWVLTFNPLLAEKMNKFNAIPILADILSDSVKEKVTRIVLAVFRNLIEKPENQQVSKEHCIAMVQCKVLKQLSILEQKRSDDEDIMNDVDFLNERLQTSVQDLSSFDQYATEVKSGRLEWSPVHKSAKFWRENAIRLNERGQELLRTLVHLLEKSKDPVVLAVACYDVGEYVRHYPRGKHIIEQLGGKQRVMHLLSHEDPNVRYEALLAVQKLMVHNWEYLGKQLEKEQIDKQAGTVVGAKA
Assay: microscale thermophoresis (Monolith NT.[…]), RED-NHS labelled protein
Format: binding

| Structure (SMILES) | Kd [µM] |
| --- | --- |
| CNc1ccccc1C(=O)O[C@@H]1[C@H]2[C@H](OC(=O)C(C)C)[C@@H](OC(=O)c3ccccc3)[C@]3(COC(=O)C(C)C)[C@@H](OC(C)=O)[C@@H](OC(C)=O)C[C@](C)(O)[C@@]13OC2(C)C [CV-6-N-methylisatoic] | 213 |
| CC(=O)O[C@H]1C[C@](C)(O)[C@]23OC(C)(C)[C@H]([C@H](OC(=O)C(C)C)[C@@H](OC(=O)c4ccccc4)[C@]2(COC(=O)C(C)C)[C@H]1OC(C)=O)[C@H]3OC(=O)CN [CV-6-aminoacetic acid ester] | 156 |
| CC(=O)O[C@H]1C[C@](C)(O)[C@]23OC(C)(C)[C@H]([C@H](OC(=O)C(C)C)[C@@H](OC(=O)c4ccccc4)[C@]2(COC(=O)C(C)C)[C@H]1OC(C)=O)[C@H]3OC(=O)C(C)N (stereo partly drawn) [CV-6-α-aminopropanoic acid ester] | 144 |
